Measurements: article PMC8921294, “Inhibition of mitochondrial LonP1 protease by allosteric blockade of ATP binding and hydrolysis via CDDO and its derivatives” (The Journal of Biological Chemistry, 2022)
Numbering of substitutions follows the chain as printed.

How the values were obtained:
[1] = target: T1, LonP1 C637S (Homo sapiens, UniProt P36776, C637S); assay: Endpoint ATPase assay, LonP1 C637S; format: biochemical
T1 construct: hexa-histidine (N); made in house; host or cells: Rosetta 2 E. coli
T1 sequence (P36776 68-959 C637S): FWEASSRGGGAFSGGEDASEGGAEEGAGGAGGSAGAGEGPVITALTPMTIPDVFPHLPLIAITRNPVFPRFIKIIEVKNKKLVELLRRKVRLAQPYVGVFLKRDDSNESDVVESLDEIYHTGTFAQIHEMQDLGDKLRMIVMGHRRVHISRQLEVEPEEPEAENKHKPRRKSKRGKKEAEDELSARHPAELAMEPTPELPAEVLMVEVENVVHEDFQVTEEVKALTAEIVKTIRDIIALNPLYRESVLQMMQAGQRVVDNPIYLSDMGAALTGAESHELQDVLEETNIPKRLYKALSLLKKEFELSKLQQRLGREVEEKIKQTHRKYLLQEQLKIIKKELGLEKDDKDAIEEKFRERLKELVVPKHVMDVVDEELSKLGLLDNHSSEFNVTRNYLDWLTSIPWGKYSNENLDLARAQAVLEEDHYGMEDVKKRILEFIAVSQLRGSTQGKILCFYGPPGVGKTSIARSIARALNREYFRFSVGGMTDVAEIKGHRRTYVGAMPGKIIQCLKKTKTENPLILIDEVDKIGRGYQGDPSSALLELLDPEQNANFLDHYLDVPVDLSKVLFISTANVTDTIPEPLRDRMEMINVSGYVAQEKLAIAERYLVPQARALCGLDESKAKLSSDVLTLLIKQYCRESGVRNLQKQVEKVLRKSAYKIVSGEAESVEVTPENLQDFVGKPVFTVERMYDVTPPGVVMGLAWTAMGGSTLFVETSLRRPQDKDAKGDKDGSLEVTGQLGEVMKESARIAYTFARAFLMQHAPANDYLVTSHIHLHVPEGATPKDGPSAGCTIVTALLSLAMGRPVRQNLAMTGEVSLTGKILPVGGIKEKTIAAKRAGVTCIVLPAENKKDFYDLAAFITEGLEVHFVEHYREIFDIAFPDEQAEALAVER
Protocol: (§1) Human mitochondrial LonP1 and mutants lacking the predicted mitochondrial targeting sequence were fused to an N-terminal hexa-histidine affinity tag, expressed in Rosetta 2 E. Coli, and purified using a nickel agarose column as previously described ([72]) and protein concentration and buffer exchange carried out using Amicon Ultra centrifugal filtration. LonP1 mutant constructs were obtained from the PCR-based QuikChange Site-Directed Mutagenesis Kit.
(§2) ADP-Glo (Promega) assays were performed according to the manufacturer's protocols. Purified wild-type or mutant LonP1 (400 nM monomer), the 26S proteasome (3 nM), or no enzyme controls were preincubated in 96-well plates (60 min, 25 °C) with ten different concentrations of CDDO and its derivatives, TP-82, enoxolone (5 μM) or DMSO vehicle control in buffer (40 mM Tris-HCl (pH 7.5), 20 mM MgCl2, 0.1 mg/ml BSA and 5% DMSO). The 26S and 20S proteasome were also assayed at 0, 0.75, 1.5, 3, 6, and 12 nM in the absence of CDDO derivatives. […] Assay reagents were used to quench further ATPase activity and generate luminescence signals proportional to the concentration of ADP formed. Background (no enzyme control) luminescence values were subtracted, and resultant values were reported as a percentage of the no drug control (100%). […]

[2] = target: T2, LonP1 F547A (Homo sapiens, UniProt P36776, F547A); assay: Endpoint ATPase assay, LonP1 F547A; format: biochemical
T2 construct: hexa-histidine (N); made in house; host or cells: Rosetta 2 E. coli
T2 sequence (P36776 68-959 F547A): T1 sequence (P36776 68-959 C637S) with F480A, S570C
Protocol: as §1, §2

Fold increase in inhibition compared with WT [1]: 4.7
IC50 ([1]; end-point ATPase assay, N = 1, read-out: CDDO IC50): 3 µM
Fold increase in inhibition compared with WT [2]: 2.4
IC50 ([2]; end-point ATPase assay, read-out: CDDO IC50): 5.9 ± 0.6 µM
Compound: CC1(C)CC[C@]2(C(=O)O)CC[C@]3(C)[C@H](C(=O)C=C4[C@@]5(C)C=C(C#N)C(=O)C(C)(C)[C@@H]5CC[C@]43C)[C@@H]2C1 [CDDO, 2-cyano-3,12-dioxooleana-1,9(11)-dien-28-oic acid]
